The text below walks through data of ChEMBL document CHEMBL1157633, “Prediction and evaluation of protein farnesyltransferase inhibition by commercial drugs” (J Med Chem, 2010).

Active and inactive are the calls of the source. The calls are words filed in the database; no cut-off is given here.

A short description of data set [1]: Blockade of protein farnesyltransferase by aggregate-based inhibition assay.
Data set [2] is described as follows: Inhibition of protein farnesyltransferase by continuous fluorescence assay.
In data set [3] the test system is MDCK. Nature of the data set: Cytotoxicity against MDCK cells at >10 uM. In kind it is cell-based, Canis lupus familiaris. The note with it: dog.
In data set [4] the test system is MDCK. The data set can be described thus: Inhibition of protein farnesyltransferase-mediated farnesylation of GFP-tagged H-Ras protein overexpressed in MDCK cells assessed as inhibition of protein localization into golgi and plasma membrane at 10 uM after 48 hrs by Hoechst 34580 staining-based confocal microscopy. In kind it is cell-based.
Data set [5] in a line: Blockade of protein farnesyltransferase at 100 uM by aggregate-based inhibition assay.
Data set [6] relates to MDCK. The data set can be described thus: Inhibition of protein farnesyltransferase-mediated farnesylation of GFP-tagged H-Ras protein overexpressed in MDCK cells assessed as inhibition of protein localization into golgi and plasma membrane at 25 uM after 24 hrs by Hoechst 34580 staining-based confocal microscopy. In kind it is cell-based.

The IC50 is the concentration needed to halve the response being measured. Low readings indicate higher potency, high ones lower potency.

With `O=C1OC(c2ccc(O)cc2)(c2ccc(O)cc2)c2c(I)c(I)c(I)c(I)c21`, the result in data set [1] was inactive. Consider `Cc1cncc(CN2CCC(=C3c4ccc(Cl)cc4CCc4cccnc43)CC2)c1` [RUPATADINE], for which, in data set [2], 76 µM corresponded to half-maximal inhibition (IC50). On to `Clc1ccc(COC(Cn2ccnc2)c2ccc(Cl)cc2Cl)c(Cl)c1` (stereo not given) [MICONAZOLE], for which, in the data set with MDCK [3], the Activity result is given as “Toxic”. For the same molecule, the result (in the data set with MDCK [4]; in data set [1]) was Active.

With `Clc1ccc(COC(Cn2ccnc2)c2ccc(Cl)cc2Cl)cc1` (stereo not given), the outcome in data set [1] was Active. As for `Clc1ccccc1C(c1ccccc1)(c1ccccc1)n1ccnc1`, the outcome in data set [5] was inactive. In turn, `CCOC(=O)N1CCC(=C2c3ccc(Cl)cc3CCc3cccnc32)CC1` [LORATADINE] yielded an IC50 in data set [2] of 13.3 µM. Besides, in the data set with MDCK [6], the outcome was inactive.

In turn, `CC(C)C[C@H](NC(=O)[C@@H](O)[C@H](N)Cc1ccccc1)C(=O)O` [UBENIMEX] came in with an IC50 in data set [2] of over 200 µM.
